For this experiment, the system named is P388 leukemia ip, CD2F1 mice, survival T/C. Briefly: NCI In Vivo Anticancer Drug Screen. Data for tumor model P388 Leukemia (intraperitoneal) in CD2F1 (CDF1) mice. To be noted: endpoint: median survival time, higher = longer survival. In outline: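 Mice carrying the transplanted tumor received test compound or vehicle. Survival was recorded in each group, and the value is the treated-group measurement divided by that of the vehicle-treated control group.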

The mark [1] stands for this setting: dose: 50.0 mg/kg/injection, schedule: Q01DX005 (ip), vehicle: Klucel (hydroxypropylcellulose) (HPC).
The mark [2] stands for this setting: dose: 100.0 mg/kg/injection, schedule: Q01DX005 (ip), vehicle: Klucel (hydroxypropylcellulose) (HPC).
Where [3] appears, read: dose: 200.0 mg/kg/injection, schedule: Q01DX005 (ip), vehicle: Klucel (hydroxypropylcellulose) (HPC).
Setting [4] is: dose: 60.0 mg/kg/injection, schedule: Q01DX005 (ip), vehicle: saline with Tween-80.
Setting [5] is: dose: 120.0 mg/kg/injection, schedule: Q01DX005 (ip), vehicle: saline with Tween-80.
[6] abbreviates: dose: 240.0 mg/kg/injection, schedule: Q01DX005 (ip), vehicle: saline with Tween-80.
Where [7] appears, read: dose: 25.0 mg/kg/injection, schedule: Q01DX009 (ip), vehicle: saline with Tween-80.
The mark [8] stands for this setting: dose: 50.0 mg/kg/injection, schedule: Q01DX009 (ip), vehicle: saline with Tween-80.
Setting [9] is: dose: 50.0 mg/kg/injection, schedule: Q01DX001 (ip), vehicle: saline with Tween-80.
Setting [10] is: dose: 100.0 mg/kg/injection, schedule: Q01DX001 (ip), vehicle: saline with Tween-80.
Setting [11] is: dose: 200.0 mg/kg/injection, schedule: Q01DX001 (ip), vehicle: saline with Tween-80.
Where [12] appears, read: dose: 400.0 mg/kg/injection, schedule: Q01DX001 (ip), vehicle: saline with Tween-80.
The mark [13] stands for this setting: dose: 25.0 mg/kg/injection, schedule: Q01DX005 (ip), vehicle: saline with Tween-80.
Where [14] appears, read: dose: 50.0 mg/kg/injection, schedule: Q01DX005 (ip), vehicle: saline with Tween-80.
The mark [15] stands for this setting: dose: 100.0 mg/kg/injection, schedule: Q01DX009 (ip), vehicle: saline with Tween-80.
[16] abbreviates: dose: 200.0 mg/kg/injection, schedule: Q01DX009 (ip), vehicle: saline with Tween-80.
The mark [17] stands for this setting: dose: 100.0 mg/kg/injection, schedule: Q01DX005 (ip), vehicle: saline with Tween-80.
The mark [18] stands for this setting: dose: 200.0 mg/kg/injection, schedule: Q01DX005 (ip), vehicle: saline with Tween-80.

The values that follow come from PubChem BioAssay AID330 (DTP/NCI, 2004).

Where “and” joins values, the source holds several entries; their conditions need not be identical. Identical values can stand only once. Toxic doses and inconclusive results are not listed.

As to `COc1cccc2c1C(=O)c1c(O)c3c(c(O)c1C2=O)CC(O)(C(C)=O)CC3OC1CCN(c2ccccc2)CC(C)O1` (configuration not stated), the T/C is 96 % of control (dose: 3.13 mg/kg/injection, schedule: Q04DX003 (ip), vehicle: distilled water + Tween-80); 98 % of control (dose: 6.25 mg/kg/injection, schedule: Q04DX003 (ip), vehicle: distilled water + Tween-80); 100 % of control (dose: 12.5 mg/kg/injection, schedule: Q04DX003 (ip), vehicle: distilled water + Tween-80); 98 % of control (dose: 25.0 mg/kg/injection, schedule: Q04DX003 (ip), vehicle: distilled water + Tween-80); 105 % of control (dose: 50.0 mg/kg/injection, schedule: Q04DX003 (ip), vehicle: distilled water + Tween-80).
As for `O=C(O)/C=C\S(=O)(=O)O`, the T/C is 116 % of control (dose: 25.0 mg/kg/injection, schedule: Q04DX002 (ip), vehicle: saline); 106 % of control (dose: 50.0 mg/kg/injection, schedule: Q04DX002 (ip), vehicle: saline); 93 % of control (dose: 100.0 mg/kg/injection, schedule: Q04DX002 (ip), vehicle: saline).
For `O=C1c2cccc([N+](=O)[O-])c2C(=O)c2c1oc1ccc3ccccc3c21`, the T/C by setting is: under setting [1], 104 % of control; under setting [2], 102 % of control; under setting [3], 96 % of control.
As for `O=C(O)CSC(CC(=O)O)C(=O)O` (configuration not stated), the T/C is 97 % of control (dose: 25.0 mg/kg/injection, schedule: Q01DX009 (ip), vehicle: saline); 96 % of control (dose: 50.0 mg/kg/injection, schedule: Q01DX009 (ip), vehicle: saline); 100 % of control (dose: 100.0 mg/kg/injection, schedule: Q01DX009 (ip), vehicle: saline); 88 % of control (dose: 200.0 mg/kg/injection, schedule: Q01DX009 (ip), vehicle: saline).
On to `Nc1ncnc2nc(-c3ccc(C[P+](c4ccccc4)(c4ccccc4)c4ccccc4)cc3)[nH]c12`, for which the T/C is 95 % of control under setting [4], 95 % of control under setting [5] and 95 % of control under setting [6].
On to `Cc1cc2nc(N)[nH]c2cc1C`, for which the T/C by setting is: (dose: 6.25 mg/kg/injection, schedule: Q01DX009 (ip), vehicle: saline with Tween-80) 102 % of control; (dose: 12.5 mg/kg/injection, schedule: Q01DX009 (ip), vehicle: saline with Tween-80) 103 % of control; under setting [7], 105 % of control; under setting [8], 103 % of control.
`CC1CNC2(c3ccccc3)CSC=C(c3ccccc3)N12` (configuration not stated): the T/C runs as follows: (dose: 100.0 mg/kg/injection, schedule: Q04DX002 (ip), vehicle: saline with Tween-80) 98 % of control; (dose: 200.0 mg/kg/injection, schedule: Q04DX002 (ip), vehicle: saline with Tween-80) 101 % of control; (dose: 400.0 mg/kg/injection, schedule: Q04DX002 (ip), vehicle: saline with Tween-80) 102 % of control.
On to `COC(=O)C1(CC(=O)c2ccco2)NC(=S)NC(=O)C1C#N` (configuration not stated), for which the T/C runs as follows: under setting [4], 98 % of control; under setting [5], 94 % of control; under setting [6], 93 % of control.
Take `N#CSC1=C(SC#N)C1(F)F`: the T/C (dose: 12.5 mg/kg/injection, schedule: Q04DX002 (ip), vehicle: Klucel (hydroxypropylcellulose) (HPC)) was 100 % of control; the T/C (dose: 25.0 mg/kg/injection, schedule: Q04DX002 (ip), vehicle: Klucel (hydroxypropylcellulose) (HPC)) was 100 % of control; the T/C (dose: 50.0 mg/kg/injection, schedule: Q04DX002 (ip), vehicle: Klucel (hydroxypropylcellulose) (HPC)) is 104 % of control.
Regarding `CC(=O)N(C)OS(=O)(=O)c1ccc(C)cc1`, the T/C by setting is: under setting [9], 102 % of control; under setting [10], 105 % of control; under setting [11], 105 % of control; under setting [12], 95 % of control.
Regarding `CCc1nc(N)nc(N)c1-c1ccc2nnn(O)c2c1`, the T/C reads like this: under setting [1], 98 % of control; under setting [2], 96 % of control; under setting [3], 105 % of control.
With `NCC1CC2(Cl)C(Cl)=C(Cl)C1(Cl)C2(Cl)Cl` (configuration not stated), the T/C was 106 % of control (dose: 12.5 mg/kg/injection, schedule: Q01DX005 (ip), vehicle: saline with Tween-80); 107 % of control under setting [13]; 107 % of control and 111 % of control under setting [14].
For `O=C(O)c1nc2ccccc2c(=O)[nH]1`, the T/C is 95 % of control under setting [7], 96 % of control under setting [8], 94 % of control under setting [15] and 93 % of control under setting [16].
As to `CCOc1ccc(-n2cnc3c(=O)[nH]c(N)nc32)cc1`, the T/C is 90 % of control (dose: 15.0 mg/kg/injection, schedule: Q01DX005 (ip), vehicle: saline with Tween-80); 91 % of control (dose: 30.0 mg/kg/injection, schedule: Q01DX005 (ip), vehicle: saline with Tween-80); 86 % of control and 90 % of control under setting [4]; 102 % of control under setting [6].
In the case of `Cc1ccc2c(c1)SP1(c3ccccc3)(Oc3c(c4ccccc4c4ccccc34)O1)S2`, the T/C under setting [4] was 118 % of control, the T/C under setting [5] was 110 % of control and the T/C under setting [6] was 114 % of control.
Turning to `N#CC1CCC(c2ccccc2)(c2ccccc2)C1=O` (configuration not stated), the T/C runs as follows: (dose: 100.0 mg/kg/injection, schedule: Q04DX003 (ip), vehicle: Klucel (hydroxypropylcellulose) (HPC)) 94 % of control; (dose: 200.0 mg/kg/injection, schedule: Q04DX003 (ip), vehicle: Klucel (hydroxypropylcellulose) (HPC)) 95 % of control.
On to `COn1c2ccccc2c2c1cc1ccccc1[n+]2[O-]`, for which the T/C was 113 % of control (dose: 12.5 mg/kg/injection, schedule: Q01DX005 (ip), vehicle: Klucel (hydroxypropylcellulose) (HPC)); 111 % of control (dose: 25.0 mg/kg/injection, schedule: Q01DX005 (ip), vehicle: Klucel (hydroxypropylcellulose) (HPC)); 106 % of control under setting [1]; 90 % of control under setting [2]; 94 % of control under setting [3].
Consider `CC1=NN(C(=O)NS(=O)(=O)c2ccc(CCNC(=O)c3nccnc3N)cc2)CC1`, for which the T/C under setting [14] was 96 % of control, the T/C under setting [17] is 105 % of control and the T/C under setting [18] was 105 % of control.
With `CC(=O)OCC1OC(N(CCCl)CCCl)C(OC(C)=O)C(OC(C)=O)C1OC(C)=O` (configuration not stated), the T/C runs as follows: (dose: 1.25 mg/kg/injection, schedule: Q01DX005 (ip), vehicle: distilled water + Tween-80) 106 % of control; (dose: 2.5 mg/kg/injection, schedule: Q01DX005 (ip), vehicle: distilled water + Tween-80) 110 % of control and 115 % of control; (dose: 5.0 mg/kg/injection, schedule: Q01DX005 (ip), vehicle: distilled water + Tween-80) 110 % of control and 117 % of control and 119 % of control; (dose: 10.0 mg/kg/injection, schedule: Q01DX005 (ip), vehicle: distilled water + Tween-80) 173 % of control; (dose: 20.0 mg/kg/injection, schedule: Q01DX005 (ip), vehicle: distilled water + Tween-80) 187 % of control [middle of 4 runs]; (dose: 40.0 mg/kg/injection, schedule: Q01DX005 (ip), vehicle: distilled water + Tween-80) 199 % of control.
`C1=C(c2ccccc2)C(c2ccc(OCCN3CCCCC3)cc2)Oc2ccccc21` (configuration not stated): the T/C under setting [14] was 92 % of control and the T/C under setting [17] is 86 % of control.
Regarding `CCCCCCC(=O)/C=C/c1ccccc1OC(=O)c1ccc(Cl)cc1`, the T/C runs as follows: under setting [7], 101 % of control; under setting [8], 88 % of control and 90 % of control; under setting [15], 95 % of control; under setting [16], 94 % of control.
Turning to `c1ccc(C2SCC3(CCCCC3)CS2)cc1`, the T/C under setting [13] is 98 % of control; the T/C under setting [9] is 101 % of control; the T/C under setting [14] is 100 % of control; the T/C under setting [10] was 101 % of control; the T/C under setting [17] is 100 % of control; the T/C under setting [11] was 94 % of control. Also, the T/C runs as follows: under setting [18], 98 % of control; under setting [12], 88 % of control.
